Test results published in PMC8956739, “A synthetic lipopeptide targeting top-priority multidrug-resistant Gram-negative pathogens” (Nature Communications, 2022).
Several values for one entry are separate records, joined by “and”; a condition that tells them apart may be missing. Identical values can stand only once. Residues, ends and D or L forms follow the SMILES beside them.

Tests used:
A. baumannii AB5075 = experiment: Transcriptomic analysis (RNA-Seq) of bacteria; type: cell-based, Acinetobacter baumannii; conditions: for logFC (Differential gene expression for all genes), Geneid ABUW_RS00005 / logFC (Differential gene expression for all genes), Geneid ABUW_RS00020 / logFC (Fold change), gene ABUW_RS00010 / logFC (Fold change), gene ABUW_RS00030 / logFC (Fold change), gene ABUW_RS00035 / logFC (Fold change), gene recF (ABUW_RS00015) / 4h_1h logFC (Differential gene expression for all genes), Geneid ABUW_RS00005 / 4h_1h logFC (Differential gene expression for all genes), Geneid ABUW_RS00010 / 4h_1h logFC (Differential gene expression for all genes), Geneid ABUW_RS00015 / 4h_1h logFC (Differential gene expression for all genes), Geneid ABUW_RS00020: RNA-Seq A. baumannii AB5075; for log2FC, gene ABUW_RS01945 (acyl-CoA thioesterase II) / log2FC, gene ABUW_RS02545 (acyl-CoA thioesterase) / log2FC, gene ABUW_RS05045 (acyl-CoA thioesterase) / log2FC, gene ABUW_RS17575 (acyl-CoA thioesterase): pathway Fatty Acid and Lipid Degradation; for 4h_1h logFC (Differential gene expression for all genes), Geneid ABUW_RS00005 / 4h_1h logFC (Differential gene expression for all genes), Geneid ABUW_RS00010 / 4h_1h logFC (Differential gene expression for all genes), Geneid ABUW_RS00015 / 4h_1h logFC (Differential gene expression for all genes), Geneid ABUW_RS00020: 4h vs 1h
Procedure: Mid-log phase A. baumannii AB5075 (~10^8 CFU/mL) in CaMHB was treated with colistin (2 and 8 μg/mL), F287, F319 or F365 (equimolar concentration to colistin) for 1 and 4 h. Total RNA was extracted using TRIzol Reagent (Invitrogen, USA) and RNeasy Mini Kit (Qiagen, Germany). Quality check of RNA samples was conducted with NanoDrop (Thermo Fisher Scientific, USA) and Agilent 2100 Bioanalyzer (Agilent Technologies, USA) for sequencing (150 bp paired-end) at Genewiz (Shanghai, China). Raw reads were aligned to A. baumannii AB5075 genome (GCF_000963815, https://www.ncbi.nlm.nih.gov/assembly/GCF_000963815.1/) using subread-aligner (subread 2.0.1) and summarized by featureCounts (subread 2.0.1). Principal component analysis (PCA) was conducted with mixOmics 6.14.1 in R. Differentially expressed genes were determined using limma 3.46.0 with a combination of fold change ≥ 2 and false discovery rate (FDR, by Benjamini–Hochberg algorithm) adjusted P-value ≤ 0.05 (n = 3). Enrichment analysis of gene differential expression in AB5075 was conducted using BioCyc (A. baumannii AB5075, version 25.5). UpSetR 1.4.0, ComplexHeatmap 2.6.2 and circlize 0.4.13 were used for data visualization. Raw data were deposited in Short Reads Archive (SRA) database under accession numbers SRR15235669-SRR15235725.

P. aeruginosa ATCC 27853 = experiment: Neutropenic mouse bloodstream infection model; type: in vivo; conditions: single IV dose 4 mg/kg
How it was run: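 Female Swiss mice made neutropenic with cyclophosphamide (150 mg/kg day −4, 100 mg/kg day −1), infected IV with 50 µL of 4 × 10^8 CFU/mL. Lipopeptide 4 mg/kg (free base) IV at 2 h post-inoculation, n = 3. Efficacy = Δlog10 CFU/mL blood versus saline at 4 h post-dose.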

## CCCCCCCC(=O)N[C@@H](CCN)C(=O)N[C@H](C(=O)N[C@@H](CCN)C(=O)N[C@H]1CCNC(=O)[C@H]([C@@H](C)O)NC(=O)[C@H](CCN)NC(=O)[C@H](CCN)NC(=O)[C@H](CC)NC(=O)[C@@H](CC(C)C)NC(=O)[C@H](CCN)NC1=O)[C@@H](C)O [Lipopeptide F319] (HELM PEPTIDE1{[CCCCCCCC(=O)[*:2]].[Dab].T.[Dab].[Dab].[Dab].[dL].[Abu].[Dab].[Dab].T}$PEPTIDE1,PEPTIDE1,5:R3-11:R2$$$V2.0)
A. baumannii AB5075; H vs Cont, 1h
  logFC (Differential gene expression for all genes), Geneid ABUW_RS00005: -0.09763
  logFC (Differential gene expression for all genes), Geneid ABUW_RS00020: 0.4439
  logFC (Fold change), gene ABUW_RS00010: 0.5437
  logFC (Fold change), gene ABUW_RS00030: -0.5665
  logFC (Fold change), gene ABUW_RS00035: 1.083
  logFC (Fold change), gene recF (ABUW_RS00015): -0.2736
  log2FC, gene ABUW_RS01945 (acyl-CoA thioesterase II): 0.4348
  log2FC, gene ABUW_RS02545 (acyl-CoA thioesterase): 1.57
  log2FC, gene ABUW_RS05045 (acyl-CoA thioesterase): 0.3422
  log2FC, gene ABUW_RS17575 (acyl-CoA thioesterase): -0.5597
A. baumannii AB5075; H vs Cont, 4h
  logFC (Differential gene expression for all genes), Geneid ABUW_RS00005: -0.2808
  logFC (Differential gene expression for all genes), Geneid ABUW_RS00020: -0.01751
  logFC (Fold change), gene ABUW_RS00010: 1.173
  logFC (Fold change), gene ABUW_RS00030: -1.885
  logFC (Fold change), gene ABUW_RS00035: 0.8498
  logFC (Fold change), gene recF (ABUW_RS00015): -1.612
  log2FC, gene ABUW_RS01945 (acyl-CoA thioesterase II): -0.7411
  log2FC, gene ABUW_RS02545 (acyl-CoA thioesterase): 1.194
  log2FC, gene ABUW_RS05045 (acyl-CoA thioesterase): 0.6506
  log2FC, gene ABUW_RS17575 (acyl-CoA thioesterase): -1.957
A. baumannii AB5075; H
  4h_1h logFC (Differential gene expression for all genes), Geneid ABUW_RS00005: -0.8466
  4h_1h logFC (Differential gene expression for all genes), Geneid ABUW_RS00010: 0.6539
  4h_1h logFC (Differential gene expression for all genes), Geneid ABUW_RS00015: -1.958
  4h_1h logFC (Differential gene expression for all genes), Geneid ABUW_RS00020: 0.139
A. baumannii AB5075; L vs Cont, 1h
  logFC (Differential gene expression for all genes), Geneid ABUW_RS00005: 0.2742
  logFC (Differential gene expression for all genes), Geneid ABUW_RS00020: 0.3388
  logFC (Fold change), gene ABUW_RS00010: 0.1491
  logFC (Fold change), gene ABUW_RS00030: 0.2512
  logFC (Fold change), gene ABUW_RS00035: -0.1567
  logFC (Fold change), gene recF (ABUW_RS00015): 0.1396
  log2FC, gene ABUW_RS01945 (acyl-CoA thioesterase II): 0.4255
  log2FC, gene ABUW_RS02545 (acyl-CoA thioesterase): 0.2059
  log2FC, gene ABUW_RS05045 (acyl-CoA thioesterase): -0.2352
  log2FC, gene ABUW_RS17575 (acyl-CoA thioesterase): 0.153
A. baumannii AB5075; L vs Cont, 4h
  logFC (Differential gene expression for all genes), Geneid ABUW_RS00005: 0.0635
  logFC (Differential gene expression for all genes), Geneid ABUW_RS00020: -0.109
  logFC (Fold change), gene ABUW_RS00010: 0.1358
  logFC (Fold change), gene ABUW_RS00030: 0.06806
  logFC (Fold change), gene ABUW_RS00035: 0.1484
  logFC (Fold change), gene recF (ABUW_RS00015): -0.1014
  log2FC, gene ABUW_RS01945 (acyl-CoA thioesterase II): 0.08809
  log2FC, gene ABUW_RS02545 (acyl-CoA thioesterase): -0.3183
  log2FC, gene ABUW_RS05045 (acyl-CoA thioesterase): 0.2863
  log2FC, gene ABUW_RS17575 (acyl-CoA thioesterase): 0.3089
A. baumannii AB5075; L
  4h_1h logFC (Differential gene expression for all genes), Geneid ABUW_RS00005: -0.004361
  4h_1h logFC (Differential gene expression for all genes), Geneid ABUW_RS00010: -0.867
  4h_1h logFC (Differential gene expression for all genes), Geneid ABUW_RS00015: -0.3076
  4h_1h logFC (Differential gene expression for all genes), Geneid ABUW_RS00020: -0.09503
P. aeruginosa ATCC 27853; 4 h
  Log10 CFU/mL blood at 4 h, Mean: 4.01 Log10 CFU/mL blood
P. aeruginosa ATCC 27853; 4 h, treated minus control, mean of replicates, 4 mg/kg
  Δlog10 CFU/mL blood (mean): −3.44 log10 CFU/mL blood
P. aeruginosa ATCC 27853; 4 h, 4 mg/kg
  Log10 CFU/mL blood at 4 h, single mouse: 3.87 Log10 CFU/mL blood and 4.06 Log10 CFU/mL blood and 4.10 Log10 CFU/mL blood
P. aeruginosa ATCC 27853; treated mouse minus mean of vehicle mice, 4 mg/kg
  Delta Log10 CFU/mL blood at 4 h, single mouse: -3.57 Log10 CFU/mL blood and -3.38 Log10 CFU/mL blood and -3.35 Log10 CFU/mL blood
